The results in this text go back to patent US20130089601A1, “METHOD FOR TREATING ATHEROSCLEROSIS” (KAOHSIUNG MEDICAL UNIVERSITY, priority 2009, published 2013).

For data set [1], the system named is eNOS. Kind of data set: Real-time qPCR of eNOS mRNA in HUVECs co-cultured with transfected HASMCs. The class given is cell-based, human. As to conditions: co-cultured with microRNA-195-transfected HASMCs. The method, then:
(§1) HASMCs were transfected with negative control microRNA or microRNA-195 with or without the presence of oxLDL. MicroRNA-195-transfected HASMCs were co-cultured with HUVEC. Real-time qPCR analysis of mRNA levels for genes surrogating endothelial functions as well as atherosclerosis, such as vascular cell adhesion molecule-1 (VCAM-1), […] (TNF-a) and interleukin-6 (IL-6), and vasodilation gene, endothelial nitric oxide synthase (eNOS), were determined in HUVECs.

For data set [2], the system named is apoE−/− mice. The source says:
Lentivector Expression System was purchased from System Biosciences. The microRNA expression vectors pCDH-CMV-MCS-EF1- GreenPuro vector (System Biosciences, SBI) contain a CMV-driven EGFP reporter. The full length sequence of microRNA-195 was amplified from genomic DNA by polymerase chain reaction (PCR). Primer pairs for microRNA expression vectors were microRNA-195 forward: 5′-[…]-3′ (SEQ ID NO: 3), and reverse: 5′-[…]-3′ (SEQ ID NO: 4). The PCR products were inserted to the microRNA expression vectors. The clones carrying microRNA-195 was named pCDH-miR-195. The pCDH vector was used as control.
The miRNA expression vectors (pCDH-miR-195 and pCDH mock vector) and Lentivirus Package plasmid mix (System Biosciences, SBI) were cotransfected into 293TN cells with PureFection™ Transfection Reagent (System Biosciences; Mountain View, Calif., USA), and Lenti-X Concentrator (Clontech, USA) was used for concentration. Infectious titers were determined by counting GFP positive-293T cells using a fluorescence microscope.
0.1 ml PBS with 10^7 IFU Lentivirus containing pCDH-miR-195 or a control vector was injected to the tail veil of the apoE−/− mice that were under a high fat diet. The injection was repeated once a week for a total of 12 weeks. Changes in body weight of the apoE−/− mice treated with Lentivirus containing pCDH-miR-195 (the microRNA-195 treatment group) and the apoE−/− mice treated with Lentivirus containing the control vector (the control group) were recorded every week and are shown in FIG. 7. When the experiment was completed, the mice of the microRNA-195 treatment group and the mice of the control group were sacrificed.
Biochemical indexes, such as blood urea nitrogen (BUN) and creatinine (CRE) for renal function, GOT (AST) and GPT (ALT) for liver function, fasting blood sugar (GLU), total cholesterol (T-CHO), high density lipoprotein (HDL), low density lipoprotein (LDL) and triglyceride (TG) of the blood of mice of the microRNA-195 treatment group and mice of the control group were determined and are shown in Table 2, respectively. Indexes for weight of various organs to body weight (organ weight/body weight) of mice of the microRNA-195 treatment group and the mice of the control group were determined and are shown in Table 3, respectively.

In data set [3] the test system is IL-6. Briefly: Real-time qPCR of IL-6 mRNA in HUVECs co-cultured with transfected HASMCs. The class given is cell-based, human. Conditions: co-cultured with microRNA-195-transfected HASMCs. As to the method: as §1
In data set [4] the test system is vascular smooth muscle cells (VSMC). Briefly: WST-1 cell proliferation assay of VSMC stimulated with ox-LDL. The class given is cell-based, human. Conditions: ox-LDL 40 μg/ml, 24 hours. The method, then: The experiments were conducted in the primary aortic smooth muscle cells (purchased as cryopreserved tertiary cultures from Cascade Biologics, OR, USA) at passages 4 to 8. The VSMC cells were maintained in an M231 culture medium supplemented with fetal bovine serum (FBS, 5%), human epidermal growth factor (10 ng/ml), human basic fibroblast growth factor (3 ng/ml), insulin ([…]), penicillin (100 units/ml), streptomycin ([…]), and Fungizone ([…]). The cultures were kept at a temperature of 37° C. in an atmosphere of 5% CO2 in air.
The transfection was performed using a siPort NeoFx reagent (Ambion) and VSMC cell proliferation and migration were evaluated 24 hours after the microRNA-195 transfection. In addition, simvastatin was used, a widely used lipid lowering drug and anti-atherosclerosis drug, to test the influence of microRNA-195 levels by simvastatin.
VSMC is an established model for atherosclerosis studies and when atherosclerosis incursion VSMC proliferation increases. A VSMC proliferation rate was used as a surrogate for the development of atherosclerosis, which was assessed by WST-1. By using a 1-3 μL siPort NeoFx (Ambion) reagent, 0-120 nM of microRNA-195 (Pre-miR™ miRNA, hsa-miR-195 (product ID PM10827), Ambion Inc.) was transfected into the VSMC cells while they were incubated with ox-LDL (40 μg/ml) for 24 hours. […] The microplates were then read by a spectrophotometer by measuring the absorbance of a dye with a wavelength of 450 nm and a reference wavelength of 600 nm (Benchmark PLUS Microplate Spectrophotometer, Bio-Rad) and plotted. […]
Cell proliferation of the VSMC was evaluated following incubation in ox-LDL (40 μg/ml) for 24 hours in the presence of microRNA-195 (Pre-miR miRNA, hsa-miR-195 (product ID PM10827), Ambion Inc.) (100 nM), simvastatin (1 nM) or Panax Notoginseng (in a form of water extract with concentration of 1 mg/ml; Chuang Song Zong Pharmaceutical co. Ltd), or in the presence of microRNA-195 (100 nM) with simvastatin (1 nM) or with Panax Notoginseng (in a form of water extract with concentration of 1 mg/ml). […]

The mark [5] stands for this setting: Lentivirus containing pCDH-miR-195, 12 weeks, high fat diet.
Where [6] appears, read: Lentivirus containing pCDH-miR-195 vs control group, from Table 2.
The mark [7] stands for this setting: blood, Lentivirus containing pCDH-miR-195 10^7 IFU tail vein weekly, 12 weeks, high fat diet.

With “microRNA-195: Pre-miR miRNA, hsa-miR-195 (product ID PM10827), Ambion Inc., which mimics precursor for mature human miR-195; mimic 5′-UAGCAGCACAGAAAUAUUGGC-3′ (SEQ ID NO: 5) (chemistry not given here)”, the “eNOS mRNA level in HUVECs” value in data set [1] is reported as “increases”. Further, in data set [2] (setting [5]), the “Heart weight/body weight, average” value was 0.49%; the “Kidney weight/body weight, average” value was found to be 1.20%; the “Liver weight/body weight, average” value worked out at 3.35%; the “Lung weight/body weight, average” value was 0.72%. Further, the “Spleen weight/body weight, average” value in data set [2] (setting [5]) is recorded as 0.32%. Further, in data set [2] (setting [6]), the HDL increase was 77% and the triglyceride decrease is listed as 26%. In addition, the “blood sugar level versus placebo treated animals” value in data set [2] (Lentivirus containing pCDH-miR-195 vs control vector, high-fat diet) is on record as “lower”. Besides, the “control of the increase of body weight” value in data set [2] (Lentivirus containing pCDH-miR-195 vs control vector, high-fat diet, 12 weeks) is reported as “better than the placebo”. Also, in data set [2] (setting [7]), the “BUN (blood urea nitrogen), average” value was determined as 21.5; the “CRE (creatinine), average” value was determined as 0.7; the “GLU (fasting blood sugar), average” value is on record as 166.5; the “GOT (AST), average” value turned out to be 118.5. Besides, in data set [2] (setting [7]), the “GPT (ALT), average” value is reported as 28.5; the “HDL (high density lipoprotein), average” value was found to be 11.5; the “T-CHO (total cholesterol), average” value is 711.5; the “TG (triglyceride), average” value was found to be 141. In addition, the “IL-6 mRNA level in HUVECs” value in data set [3] is “suppresses”. The “reduction of VSMC cell proliferation” value in data set [4] (30 nM transfected) was 21%. In addition, the “reduction of VSMC cell proliferation” value in data set [4] (60 nM transfected) came to 29%. Moreover, the “reduction of VSMC cell proliferation” value in data set [4] (120 nM transfected) is given as 45%.
